Ends that are not written are not given here.
Key:
HIV-1IIB = assay: HIV-1 antiviral assay in CEM-SS cells (MTS readout); type: cell-based
[1] = system: hepatitis B virus (HBV) ayw strain; assay: HBV experimental assay system, HepG2-2.2.15, TaqMan PCR of secreted HBV DNA; type: cell-based; details: 10 micrograms per ml; six days; HBV DNA in supernatant
Text: HepG2-2.2.15 is a stable cell line containing the hepatitis B virus (HBV) ayw strain genome (ATCC Cat. No. CRL-11997). Antiviral compounds blocking any late step of viral replication such as transcription, translation, pregenome encapsidation, reverse transcription, particle assembly and release can be identified and characterized using this cell line. In this assay, an active compound will reduce the production of secreted HBV from cells, measured by utilizing real time quantitative PCR (TaqMan) assay to directly and accurately measure HBV DNA copies.
HepG2-2.2.15 cells were plated in 96-well microtiter plates. After 16-24 hours the confluent monolayer of HepG2-2.2.15 cells was washed and the medium was replaced with complete medium containing test peptides—10 micrograms per ml—in duplicate. […] Six days following the initial administration of the peptides, the cell culture supernatants was collected, treated with pronase and DNAse and then used in a real-time quantitative TaqMan PCR assay. The PCR-amplified HBV DNA was detected in real-time by monitoring increases in fluorescence signals that result from the exonucleolytic degradation of a quenched fluorescence probe molecule that hybridizes to the mplified HBV DNA. […] Antiviral activity was calculated from the reduction in HBV DNA levels (% virus control). […]

HCMV strain AD169 = assay: HCMV plaque reduction assay in MRC-5 cells; type: cell-based; details: for inhibition of HCMV plaque formation as compared to the virus control experiment: 10 micrograms per ml, 7-10 days
A549 cells = assay: Apoptosis induction assay (Annexin-5); type: cell-based, human; details: 10 micrograms per ml, 24 hours
murine spleen cells = assay: Th1/Th2 cytokine profiling assay (Ovalbumin-restimulated spleen cells, CBA kit); type: cell-based, mouse; details: 10 micrograms per ml; 72 hours after Ovalbumin restimulation
[2] = system: Primary Human endothelial cells (HUVEC); assay: Endothelial cell migration assay; type: cell-based; details: 10 micrograms per ml, 22 hours
HUVEC = assay: Endothelial tube formation assay; type: cell-based, human; details: 10 micrograms per ml, 20 hours
Description: The endothelial tube formation assay is based on the ability of endothelial cells to form three-dimensional capillary-like tubular structures when cultured on a gel of basement membrane extract. The endothelial tube formation assay represents a powerful model for studying inhibition and induction of angiogenesis. Pre-labeled HUVEC with Calcein AM were seeded in a 96-well culture plate coated with extracellular metrix (Chemicon international Cat. ECM625) and treated with test peptides-10 micrograms per ml-in full growth medium. […] control was vehicle only. […] Duplicate wells for each treatment were photographed and quantitatevily analyzed for an average tubule length using image analysis software ImageProPlus. Raw data were expressed as average tubule […]±standard deviation. Statistic p values were computed using the Student's t-test.

Row | Molecule | antiviral activity of positive control compounds (HIV-1) (HIV-1IIB) | inhibition of HBV replication as compared to the virus control infection [1] | inhibition of HCMV plaque formation as compared to the virus control experiment (HCMV strain AD169) | production of IL-2, induced by (murine spleen cells) | production of IL-5, decreased by (murine spleen cells) | production of TNF-alpha, induced by (murine spleen cells) | inhibition of the tube formation of human endothelial cells (HUVEC) | also measured
1 | CC(C)(C)NC(=O)[C@@H]1CN(Cc2cccnc2)CCN1C[C@@H](O)C[C@@H](Cc1ccccc1)C(=O)N[C@H]1c2ccccc2C[C@H]1O [indinavir] | expected levels of antiviral activity |  |  |  |  |  |  | 
2 | Tyr-Ala-Asp-Ala-Ile-Phe-Thr-Asn-Ser-Tyr-Arg-Lys-Val-Leu-Gly-Gln-Leu-Ser-Ala-Arg-Lys-Leu-Leu-Gln-Asp-Ile-Met-Ser-Arg-NH2 (YADAIFTNSYRKVLGQLSARKLLQDIMSR-NH2) [Peptide 1] |  | 30.5% | 0.7% | 30.9% | 33.0 | 55.5% | did not inhibit | induction of apoptosis on human lung cells (in words) (A549 cells): did not show any significant induction of apoptosis; change of the production of IL-4 (in words) (murine spleen cells): did not significantly change; production of IFN-gamma, decreased by (murine spleen cells): 29.0; inhibition of the migration of human endothelial cells [2]: 9%
3 | Nc1nc(O)c2ncn(COC(CO)CO)c2n1 [Ganciclovir, reference compound] |  |  |  |  |  |  |  | antiviral activity of positive control compound (HCMV) (HCMV strain AD169; positive control): expected levels of antiviral activity
4 | Ser-Glu-Glu-Pro-Pro-Ile-Ser-Leu-Asp-Leu-Thr-Phe-His-Leu-Leu-Arg-Glu-Val-Leu-Glu-Met-Ala-Arg-Ala-Glu-Gln-Leu- Ala-Gln-Gln-Ala-His-Ser-Asn-Arg-Lys-Leu-Met-Glu-Ile-Ile-N H2 (SEEPPISLDLTFHLLREVLEMARAEQLAQQAHSNRKLMEII-NH2) [Peptide 2] |  | 57.2% | 3.2% | 66.5% | 93.0 | 38.1% | did not inhibit | induction of apoptosis on human lung cells (A549 cells): 0.9%; production of IFN-gamma, induced by (murine spleen cells): 44.1%; production of IL-4, induced by (murine spleen cells): 78.1%; inhibition of the migration of human endothelial cells (in words) [2]: did not inhibit
5 | Cc1cn([C@H]2C[C@H](N=[N+]=[N-])[C@@H](CO)O2)c(=O)[nH]c1=O [AZT] | expected levels of antiviral activity |  |  |  |  |  |  | 

From patent publication US20100204118A1, “USE OF GRF-1 (1-29 ) AND CORTICOTROPIN-RELEASING FACTOR AS THERAPEUTIC AGENTS” (priority 2007, published 2010)
